According to US20260167662A1, “MODIFIED […] GUANIDINO STRUCTURE IN BRIDGED PART AND METHOD FOR PRODUCING OLIGO[…] SAME” (LUXNA BIOTECH CO., LTD., priority 2022, published 2026):

Test: Stability test of amidite: 0.1 M solution in acetonitrile stored in the dark at room temperature, analysed by UHPLC
Format: physicochemical
Conditions: 0.1 M in acetonitrile
Protocol: • Device used: ACQUITY Arc UHPLC system manufactured by Waters Corporation • Column: Xbridge BEH C18, 2.5 μm, 3.0×100 mm, Column XP manufactured by Waters Corporation • Mobile phase: Gradient
• Flow rate: 0.85 mL/min • Detection: PDA (200 to 400 nm) • Column temperature: 30° C. • Analysis time: 10.00 min
The amidite a3 (purity was 96.3%) obtained in Example 1, and an amidite a3′ (purity was 90.9%) synthesized according to the method described in Patent Document 5 were each dissolved in acetonitrile to prepare a 0.1 M solution.
Of the two 0.1 M solutions obtained, the solution containing the amidite a3 of Example 1 was stored in the dark at room temperature for 7 days. On the other hand, the solution containing the amidite a3′ of Patent Document 5 was stored in the dark at room temperature for 17 hours.
The UHPLC results of the amidites a3 and a3′ contained respectively in the stored solutions are shown in Tables 7 and 8, and the UHPLC-MS results of the amidites a3 and a3′ contained respectively in the stored solutions are shown in FIGS. 12 and 13.

| Structure (SMILES) | % Area of main UHPLC peak after storage (stored for 7 days, retention time 7.335 min, purity before storage 96.3%) [%] | Stability in stored solution, compared by UHPLC peaks (a3 stored 7 days versus a3′ stored 17 hours) | % Area of main UHPLC peak after storage (stored for 17 hours, retention time 5.866 min, purity before storage 90.9%) [%] |
| --- | --- | --- | --- |
| COc1ccc(C(OC[C@]23CN(/C(=N/C(=O)OCC4c5cc(C(C)(C)C)ccc5-c5ccc(C(C)(C)C)cc54)NC(C)(C)C)C(C2OP(OCCC#N)N(C(C)C)C(C)C)[C@H](n2cc(C)c(=O)[nH]c2=O)O3)(c2ccccc2)c2ccc(OC)cc2)cc1 (stereo partly drawn) [amidite a3, di-tBu-Fmoc-GuNA[t-Bu]-T amidite] | 95.21 | more stable |  |
| COc1ccc(C(OC[C@@]23CN(/C(=N/C(=O)OCC4c5ccccc5-c5ccccc54)NC(C)(C)C)C([C@H](n4cc(C)c(=O)[nH]c4=O)O2)[C@H]3OP(OCCC#N)N(C(C)C)C(C)C)(c2ccccc2)c2ccc(OC)cc2)cc1 (stereo partly drawn) [amidite a3′, reference compound] |  |  | 76.00 |
